Test system: Diabetic rats
Experiment: In vivo study of effect on Nerve Conduction Velocity (NCV) in streptozotocin-induced diabetic rats
Conditions: 150 mg/kg, 8 weeks of treatment after 12 weeks of diabetes, streptozotocin diabetic male Wistar rats; compared with diabetic control rats treated with vehicle; ***p<0.001 by student's t-test (FIG. 1)
Protocol: Motor nerve conduction velocity evaluation was performed as a measure of AGE related diabetic complications.
In vivo study to evaluate effect of compound of present invention on Nerve Conduction Velocity
Healthy male Wistar rats, 170-250 g, 6-10 weeks old, were selected for the study. The animals were divided into two groups i.e. a non-diabetic control group (Normal Control Rats) and a diabetic group. Diabetes was induced (in the diabetic group of animals) by a single intraperitoneal injection of streptozotocin (60 mg/kg body weight) dissolved in citrate buffer (pH 4.5) (Biro et al; Brain Research Bulletin (1997) 44(3): 259-263). […]
150 mg/kg of Compound No 1 was administered to diabetic rats and diabetic control group was treated with vehicle for Compound 1. The rats were monitored throughout the experiment for water intake, food intake, changes in body weight, blood biochemistry parameters, urine parameters and mortality. […]
After 8 weeks of treatment NCV was estimated as described by Biro et al, (1997). […] Electromyograms (EMG's) from the plantar muscles were amplified and recorded using a data acquisition system (MacLab®, ADI instruments). […] Latency and the duration of the M responses were measured and the motor nerve conduction velocity (MNCV) was calculated. […]
Anode was placed in proximity to the cathode. Upon stimulation of the nerve, responses (EMG) were recorded from the plantar surface. […]

SMILES: CS(=O)(=O)NNC(=O)c1ccc[n+](CC(=O)c2cccs2)c1 [Compound 1]
- Nerve Conduction Velocity (NCV): improvement in NCV
